pIC50: −log10 of the molar value.
Experiments:
Aβ total = Aβ total cellular assay in H4 neuroglioma cells stably expressing human APP695 (electrochemiluminescence), used for the ratio Aβ total IC50 / Aβ42 IC50; type: cell-based; details: higher ratio = more specific inhibition of Aβ42
Description: (§1) Cells were plated out to near confluency. The compounds to be tested were received as 10 mM stocks in 100% DMSO. A dilution series was initially generated in 100% DMSO and then diluted 200-fold in cell culture media such that the tested concentration range was 30 µM to 0.1 nM and the final DMSO concentration was 0.5%. The diluted compounds were incubated with the cells for 22 hours in an incubator at 37°C and 5% CO2. Aβ42 as well as Aβ total levels were then measured post-incubation from the supernatant of the cells. Aβ42 levels were determined using a specific electrochemiluminescence assay provided by Meso Scale Discovery (Catalog # L21CA-1) according to the manufacturer's protocol. Aβ total levels were likewise determined using a specific electrochemiluminescence assay provided by Meso Scale Discovery (Catalog # L21ZA-1) according to the manufacturer's protocol.
(§2) In order to absolutely define the described compounds as modulators of γ-Secretase as opposed to simply inhibitors of γ-Secretase, measurements of not only Aβ42 but also Aβ total are performed.

Aβ42 = Aβ42 cellular assay in H4 neuroglioma cells stably expressing human APP695 (electrochemiluminescence, Meso Scale Discovery); type: cell-based; details: 22 hours incubation, supernatant
Description: as §1, §2

Row | Structure (SMILES) | Ratio Aβ(total)/Aβ42 (Aβ total) | pIC50 (Aβ42)
1 | CCc1nc(Nc2ccc(-n3cnc(C)c3)c(OC)c2)nc2c1NC(=O)C1CC(OC)CCN21 (racemic) [Example 20] | 30 | 6.65
2 | CCc1nc(Nc2ccc(-n3cnc(C)c3)c(OC)c2)nc2c1N(C)C(=O)C1CC(OC)CCN21 (racemic) [Example 21] | 98 | 6.98
3 | CCc1nc(Nc2ccc(-n3cnc(C)c3)c(OC)c2)nc2c1NC(=O)[C@H]1[C@@H](c3ccc(F)cc3)CCN21 (racemic) [Example 22] | 71 | 6.09
4 | CCc1nc(Nc2ccc(-n3cnc(C)c3)c(OC)c2)nc2c1N(C)C(=O)[C@H]1[C@H](c3ccc(F)cc3)CCN21 (racemic) [Example 23] | 90 | 7.15
5 | CCc1nc(Nc2ccc(-n3cnc(C)c3)c(OC)c2)nc2c1NC(=O)[C@@]1(C)[C@@H](OC)CN21 (racemic) [Example 27] | 70 | 6.44
6 | CCN1C(=O)C2CCCCCN2c2nc(Nc3ccc(-n4cnc(C)c4)c(OC)c3)ncc21 (centres unmarked) [Example 1] | 127 | 7.32
7 | COc1cc(Nc2ncc3c(n2)N2CCCCCC2C(=O)N3C)ccc1-n1cnc(C)c1 (centres unmarked) [Example 2] | 59 | 7.01
8 | CCN1C(=O)C2CCCCCN2c2nc(Nc3ccc(-c4ccnc(C)c4)cc3)ncc21 (centres unmarked) [Example 3] | 17 | 6.40
9 | CCCN1C(=O)C2CCCCCN2c2nc(Nc3ccc(-n4cnc(C)c4)c(OC)c3)ncc21 (centres unmarked) [Example 4] | 44 | 6.95
10 | COc1cc(Nc2ncc3c(n2)N2CCCCCC2C(=O)N3C(C)C)ccc1-n1cnc(C)c1 (centres unmarked) [Example 5-1] | 109 | 7.14
11 | CCN1C(=O)C2CCCCCN2c2nc(Nc3ccc(-n4ccnc4)c(OC)c3)ncc21 (centres unmarked) [Example 5-2] | 64 | 6.76
12 | CCN1C(=O)C2CCCCCN2c2nc(Nc3ccc(-n4cnc(C)n4)c(OC)c3)ncc21 (centres unmarked) [Example 5-3] | 101 | 6.58
13 | CCN1C(=O)C2CCCCCN2c2nc(Nc3cnc(-n4cnc(C)c4)c(OC)c3)ncc21 (centres unmarked) [Example 5-4] | >175 | 6.76
14 | CCN1C(=O)C2CCCCCN2c2nc(Nc3ccc(-c4cnc(C)s4)c(OC)c3)ncc21 (centres unmarked) [Example 5-5] | 13 | 6.15
15 | CCN1C(=O)C2CCCCCN2c2nc(Nc3ccc(-n4cnc(C)c4)cc3)ncc21 (centres unmarked) [Example 5-6] | 43 | 6.15
16 | CCN1C(=O)C2CCCCCN2c2nc(Nc3ccc(-n4cnc(C)c4)cc3OC)ncc21 (centres unmarked) [Example 5-7] | 3 | 4.94
17 | CCCN1C(=O)C2CCCCCN2c2nc(Nc3ccc(-c4ccnc(C)c4)cc3)ncc21 (centres unmarked) [Example 5] | 14 | 6.14
18 | CCc1nc(Nc2ccc(-n3cnc(C)c3)c(OC)c2)nc2c1N(C)C(=O)C1CCCN21 (centres unmarked) [Example 6] | 96 | 7.08
19 | CCc1nc(Nc2ccc(-n3cnc(C)c3)c(OC)c2)nc2c1NC(=O)C1CCCN21 (centres unmarked) [Example 7] | 98 | 7.02
20 | CCc1nc(Nc2ccc(-c3ccnc(C)c3)cc2)nc2c1N(C)C(=O)C1CCCN21 (centres unmarked) [Example 8] | 62 | 6.53
21 | CCc1nc(Nc2ccc(-c3cnc(C)o3)nc2)nc2c1N(C)C(=O)C1CCCN21 (centres unmarked) [Example 9] | >24 | 5.91
22 | CCc1nc(Nc2ccc(-c3cnc(C)o3)c(OC)c2)nc2c1N(C)C(=O)C1CCCN21 (centres unmarked) [Example 10] | 189 | 6.83
23 | COc1cc(Nc2ncc3c(n2)N2CCCC2C(=O)N3C)ccc1-n1cnc(C)c1 (centres unmarked) [Example 11] | >310 | 7.01
24 | COc1cc(Nc2ncc3c(n2)N2CCCC2C(=O)N3C)ccc1-n1cnc(C)n1 (centres unmarked) [Example 12-1] | >10 | 5.53
25 | CN1C(=O)C2CCCN2c2nc(Nc3ccc(-c4cnn(C)c4)nc3)ncc21 (centres unmarked) [Example 12-2] | >5 | 5.24

Row | Structure (SMILES) | Ratio Aβ(total)/Aβ42 (Aβ total) | pIC50 (Aβ42)
26 | Cc1cn(-c2ccc(Nc3ncc4c(n3)N3CCCC3C(=O)N4C)cc2F)cn1 (centres unmarked) [Example 12-3] | >27 | 5.96
27 | COc1cc(Nc2ncc3c(n2)N2CCCC2C(=O)N3C)ccc1-n1ncnc1C (centres unmarked) [Example 12-4] | >39 | 6.12
28 | COc1cc(Nc2ncc3c(n2)N2CCCC2(C)C(=O)N3C)ccc1-n1cnc(C)c1 (centres unmarked) [Example 12] | 147 | 6.80
29 | COc1cc(Nc2nc(SC)c3c(n2)N2CCCCC2C(=O)N3C)ccc1-n1cnc(C)c1 (centres unmarked) [Example 13] | 14 | 6.38
30 | CCc1nc(Nc2ccc(-n3cnc(C)c3)c(OC)c2)nc2c1N(C)C(=O)[C@@H]1C[C@@H](OC)CN21 [Example 14] | 67 | 7.01
31 | CCc1nc(Nc2ccc(-n3cnc(C)c3)c(C#N)c2)nc2c1N(C)C(=O)[C@@H]1C[C@@H](OC)CN21 [Example 15] | 36 | 6.84
32 | CCc1nc(Nc2ccc(-n3cnc(C)c3)c(C#N)c2)nc2c1NC(=O)[C@@H]1C[C@@H](OC)CN21 [Example 16] | 33 | 6.65
33 | CCc1nc(Nc2ccc(-n3cnc(C)c3)c(OC)c2)nc2c1NC(=O)[C@@H]1C[C@@H](OC)CN21 [Example 17] | 68 | 6.52
34 | CCc1nc(Nc2ccc(-c3cnc(C)o3)c(OC)c2)nc2c1N(C)C(=O)[C@@H]1C[C@@H](OC)CN21 [Example 18] | 215 | 6.85
35 | CCc1nc(Nc2ccc(-n3cnc(C)c3)c(OC)c2)nc2c1N(CCOC)C(=O)[C@@H]1C[C@@H](OC)CN21 [Example 19-1] | 131 | 6.70
36 | CCc1nc(Nc2ccc(-c3cnc(C)o3)c(OC)c2)nc2c1NC(=O)[C@@H]1C[C@@H](OC)CN21 [Example 19] | 82 | 6.44
37 | CCc1nc(Nc2ccc(-n3cnc(C)c3)c(OC)c2)nc2c1N(C)C(=O)[C@@]1(C)C[C@@H](OC)CN21 [Example 24] | 181 | 6.78
38 | CCc1nc(Nc2ccc(-n3cnc(C)c3)c(OC)c2)nc2c1N(C)C(=O)[C@]1(C)C[C@@H](OC)CN21 [Example 25] | 73 | 6.84
39 | COc1cc(Nc2nc(CC(C)C)c3c(n2)N2C[C@H](OC)C[C@]2(C)C(=O)N3C)ccc1-n1cnc(C)c1 [Example 26] | 253 | 7.20
40 | CCc1nc(Nc2ccc(-n3cnc(C)c3)c(OC)c2)nc2c1NC(=O)C1COCCN21 (centres unmarked) [Example 28] | 29 | 6.57
41 | CCc1nc(Nc2ccc(-n3cnc(C)c3)c(OC)c2)nc2c1N(C)C(=O)C1COCCN21 (centres unmarked) [Example 29] | 76 | 6.64
42 | COc1cc(Nc2ncc3c(n2)N2CCCOCC2C(=O)N3)ccc1-n1cnc(C)c1 (centres unmarked) [Example 30] | 96 | 6.51
43 | COc1cc(Nc2ncc3c(n2)N2CCCOC2(C)C(=O)N3C)ccc1-n1cnc(C)c1 (centres unmarked) [Example 31] | 55 | 6.27
44 | COc1cc(Nc2nc(C(C)C)c3c(n2)N2CCCC2C(=O)N3C)ccc1-n1cnc(C)c1 (centres unmarked) [Example 32] | 66 | 6.87
45 | COc1cc(Nc2nc(CC(C)C)c3c(n2)N2CCCC2C(=O)N3C)ccc1-n1cnc(C)c1 (centres unmarked) [Example 33] | 171 | 7.12
46 | CC(C)Cc1nc(Nc2ccc(-c3cnn(C)c3)cc2)nc2c1N(C)C(=O)C1CCCN21 (centres unmarked) [Example 34] | 30 | 6.03
47 | Cc1cn(-c2ccc(Nc3nc(CC(C)C)c4c(n3)N3CCCC3C(=O)N4C)cc2C#N)cn1 (centres unmarked) [Example 35] | 71 | 6.90
48 | CCc1nc(Nc2ccc(-n3cnc(C)c3)c(OC)c2)nc2c1N(C)C(=O)C1CCCCN21 (centres unmarked) [Example 36] | 86 | 7.19
49 | COc1cc(Nc2nc(C(C)C)c3c(n2)N2CCN(C(=O)OC(C)(C)C)CC2C(=O)N3C)ccc1-n1cnc(C)c1 (centres unmarked) [Example 37] | 12 | 6.49

Source: patent EP2958919B1, “DIHYDROPTERIDINONES I” (Boehringer Ingelheim International GmbH, priority 2013, dated 2014)
